Seven compounds from patent US8415334B2, “Method of combating infection” (Morvus Technology Ltd., priority 2005, dated 2013) can be followed below.

Series [1] deals with T. colubriformis. Kind of series: Integrated in vitro screening, T. colubriformis. The note with it: for IC50: Trichostrongylus colubriformis, read-out: T. colubriformis, IC50. It counts as cell-based.
In series [2] the test system is P. falciparum (Ghana). Nature of the series: Integrated in vitro screening, P. falciparum (Ghana). It counts as cell-based. The note with it: Plasmodium falciparum; for IC50: read-out: P. falciparum (Ghana), IC50.
Series [3] concerns T. cruzi (tulahuen CL2). Nature of the series: microbe, parasite or virus in culture. The note with it: Trypanosoma cruzi, L6, read-out: T. cruzi (tulahuen CL2) IC50.
Procedure: The Trypanosoma cruzi (MHOM/CL/00/Tulahuen) transfected with β-galactosidase (Lac Z) gene, was used (Buckner et al (1996) Antimicrobial Agents and Chemotherapy 40(11), 2592-2597. The strain was maintained on an L-6 (rat skeletal myoblast cell line obtained from European Collection of Animal Cell Cultures (ECACC, Salisbury, UK)) cell-layer in RPMI 1640 w/o phenol red medium supplemented with 10% heat inactivated fetal calf serum. All cultures and assays were conducted at 37° C. under an atmosphere of 5% CO2 in air.
For the assays, the compound was further diluted to the appropriate concentration using complete medium.
Assays were performed in sterile 96-well microliter plates, each well containing 100 μl medium with 2×10^3 L-6 cells. After 24 hours 50 μl of a trypanosome suspension containing 5×10^3 trypomastigote bloodstream forms from culture was added to the wells. 48 hours later the medium was removed from the wells and replaced by 100 μl fresh medium with or without a serial drug dilution. […] Nifurtimox was used as the reference drug.
The compounds were tested in triplicate at 4 concentrations (30-10-3-1 μg/ml). Nifurtimox was included as the reference drug.
The same protocol was used and the IC50s determined using an extended dose range adjusted as appropriate.
Series [4] concerns L. donovani HU3. Kind of series: In vivo activity against L. donovani HU3 in mice (liver parasite load, LDU). Also noted: species or system Leishmania donovani. The note with it: for ED50: Leishmania donovani. As to the method:
(§1) The infection and treatment of the animals was performed as described by Croft and Yardley and references there in (Croft & Yardley (1999) Animal models of visceral leishmaniasis. In Handbook of Animal Models of Infection, Zak, O. (ed) pp 783-787, Academic Press, London). […] The liver was removed from freshly sacrificed animals and weighed. Smears were then prepared from the livers on microscope slides and fixed with methanol and stained with Giemsa stain. The number of parasites per 500 liver cells was determined microscopically for each experimental animal. This figure is multiplied by total liver weight (mg) and this figure (the Leishman-Donovan unit (LDU)) is used as the basis for calculating the difference in parasite load between treated and untreated animals (Croft & Yardley, 1999 supra).
(§2) Stibogluconate at its MTD (15 mg/kg×5 SC) was used as the control compound for these experiments.

For series [5], the system named is T. b. brucei. Nature of the series: Integrated in vitro screening, T. b. brucei. The note with it: Trypanosoma brucei, read-out: T. b. brucei, IC50. The class given is cell-based.
Series [6] relates to L. infantum. Nature of the series: In vitro screening, Leishmania in mouse peritoneal macrophages. It counts as cell-based. The settings on record: Peritoneal macrophage.
Procedure: One strain of Leishmania spp. (Leishmania donovani MHOM/ET/67/L82, also known as LV9,HU3) was used. The strain is maintained in the Syrian Hamster (Mesocricetus auratus). Amastigotes were collected from the spleen of an infected hamster and spleen parasite burden was assessed using the Stauber technique.
Primary peritoneal mouse (CD1) macrophages were collected 1 or 2 days after a macrophage production stimulation with an i.p. injection of 2 ml 2% soluble starch. All cultures and assays were conducted at 37° C. under an atmosphere of 5% CO2.
The stock was pre-diluted to 60 μg/ml in RPMI 1640+10% heat inactivated fetal calf serum. Assays were performed in sterile 16-well tissue culture slides, each well containing 50 μl of the compound dilutions together with 100 μl of macrophage/parasite inoculum (4×10^5 macrophages/ml and 4×10^6 parasites/ml). The inoculum was prepared in RPMI-1640 medium, supplemented with 10% heat inactivated fetal calf serum. […] After 5 days of incubation, parasite growth was microscopically assessed after staining the cells with a 10% Giemsa solution. The level of infection/well was evaluated by counting the number of infected macrophages per 100 macrophages. The results expressed as % reduction in parasite burden compared to control wells, were transferred into a graphic programme (EXCEL), sigmoidal inhibitions curves determined and IC50 values calculated. […]
Series [7] has as its system T cruzi. Kind of series: In vivo activity against T. cruzi in BALB/c mice (blood parasites, survival). The settings on record: for # of type of field (blood parasites per fields): 0.3 mg/kg i.p. x5, individual mice. Also noted: species or system Trypanosoma cruzi. As to the method:
At a dose of 0.3 mg/kg (IP×5, daily) all the mice survived for the 50 days before the experiment was terminated.

Series [8] is described as follows: Cytotoxicity assays against a range of human cell lines. The class given is cell-based. The settings on record: range of human cell lines (not named).
For series [9] the following is noted: mouse, in vivo. The procedure:
as §1, §2

Series [10] has as its system T cruzi. Nature of the series: In vivo activity against T. cruzi in BALB/c mice (blood parasites, survival). Also noted: species or system Trypanosoma cruzi. The note with it: for # of type of field (blood parasites per fields): individual mice.

“And” between values parts separate entries of the source, which are not always exact repeats. Equal values may be shown once. Read-outs that look alike come from different tables or passages of the source.

Consider `CCCSc1ccc2nc(NC(=O)OC)[nH]c2c1` [Albendazole], for which, in series [1], the IC50 (in general, the point on the concentration scale where inhibition reaches its midpoint) amounted to 2 nM.
On to `CCN(CC)CCCC(C)Nc1ccnc2cc(Cl)ccc12` (centres unmarked) [Chloroquine], for which the IC50 in series [2] amounted to 18 nM.
Consider `CC1CS(=O)(=O)CCN1/N=C/c1ccc([N+](=O)[O-])o1` (centres unmarked) [Nifurtimox], for which, in series [3], the IC50 was 450 nM.
Regarding `O.O.O.O.O.O.O.O.O.O=C([O-])[C@@H]1[O][Sb]2([O-])([O][Sb]34([OH])[O][C@H]([C@H](O)CO)[C@H]([O]3)[C@H](C(=O)[O-])[O]4)[O][C@H]([C@H](O)CO)[C@@H]1[O]2.[Na+].[Na+].[Na+]` [Stibogluconate, sodium stibogluconate], in [4] (SCID mouse model, MTD 15 mg/kg×5 SC), the “effect on parasite counts” value is “little effect”.
In the case of `Cc1ccc(C(=O)Nc2ccc(S(=O)(=O)O)c3cc(S(=O)(=O)O)cc(S(=O)(=O)O)c23)cc1NC(=O)c1cccc(NC(=O)Nc2cccc(C(=O)Nc3cc(C(=O)Nc4ccc(S(=O)(=O)O)c5cc(S(=O)(=O)O)cc(S(=O)(=O)O)c45)ccc3C)c2)c1` [Suramin], in [5], the IC50 is 45 nM.
In the case of `NC(=O)c1cc(N2CC2)c([N+](=O)[O-])cc1[N+](=O)[O-]` [Tretazicar, 5-(aziridin-1-yl)-2,4-dinitrobenzamide], the “activity against tested strains” value in [1] (T. colubriformis, in words) is reported as “No activity”; in series [2] (in words), “No activity”. Further, the IC50 is above 32000 nM in series [1] (in vitro); above 32000 nM in [2] (in vitro); 3 nM in [3]; 80 nM in series [6]; 5000 nM in series [5] (in vitro); above 50000 nM in series [8]. Further, the “survival of infected mice” value in series [7] (0.3 mg/kg (IP×5, daily), BALB/c mice, experiment terminated at 50 days) is recorded as at least 50 days. In addition, the “parasites in the blood” value is given as “parasites could still be detected in the blood” in series [7] (0.3 mg/kg (IP×5, daily), at 13 days) and “cleared all the parasites from the blood” in series [10] (3.0 mg/kg (IP×5, daily)). For the same compound, the “# of type of field (blood parasites per fields)” value in series [7] (day 6 post infection) was 2/20 and 0/20 (4×); in series [7] (day 13 post infection) it was 16/5 and 2/5 (2×) and 7/5 and 6/5; in [10] (1 mg/kg i.p. x5, day 6 post infection) it was 0/20 (3×) and 1/20 (2×); in [10] (1 mg/kg i.p. x5, day 13 post infection), 0/10 (2×) and 3/10; in series [10] (3 mg/kg i.p. x5, day 6 post infection) it was 5/20 and 12/20 and 4/20 and 1/20 (2×); in series [10] (3 mg/kg i.p. x5, day 13 post infection), 0/10. The “# of type of field (blood parasites per fields)” value in series [10] (10 mg/kg i.p. x5, day 6 post infection) was 0/20 (3×) and 1/20 and 2/20; in series [10] (10 mg/kg i.p. x5, day 13 post infection), 0/10. The “drug related toxicity, as measured by body weight loss” value in series [9] is given as “No drug related toxicity”. Further, the “dose at which significant toxicity was observed” value in series [9] (5 days) was determined as 10 mg/kg×5. Further, the ED90 in [4] (BALB/c mice, IP × 5 Daily) was determined as 1.41 mg/kg; in series [4] (BALB/c mice, IV × 3 Daily), 1.15 mg/kg; in series [4] (SCID mice, IV × 5 Daily), 0.35 mg/kg. Besides, the ED50 (as a rule, the dose at which the effect has come halfway, by size or by number of responders) in [4] (ip, BALB/c mice, IP × 5 Daily) is 0.23 mg/kg; in series [4] (iv, BALB/c mice, IV × 3 Daily) it was 0.19 mg/kg; in [4] (iv, SCID mice, IV × 5 Daily), 0.18 mg/kg.
For the compound `O=C(Cn1ccnc1[N+](=O)[O-])NCc1ccccc1` [benznidazole], the “parasites in the blood, compared with tretazicar 3.0 mg/kg” value in [10] (45 mg/kg (p.o.×5 daily)) is listed as “equivalent effect”. Besides, the “# of type of field (blood parasites per fields)” value was 0/20 and 3/20 (2×) and 4/20 and 1/20 in series [10] (45 mg/kg p.o. x5, day 6 post infection); 0/10 in series [10] (45 mg/kg p.o. x5, day 13 post infection).
